Converted amounts (≈) assume the structure as drawn. Read-outs that look alike come from different tables or passages of the source.
Experiments:
[1] = system: A. baumannii KW1 and its AdeR/AdeS mutants; assay: Etest MIC, AdeABC overexpression via AdeR or AdeS mutation (Table 16); type: cell-based, Acinetobacter baumannii
Text: DNA fragments of the entire adeR, adeS, gyrA and parC along with their flanking regions were amplified from A. baumannii KW1 using PCR with specific primer pairs and then cloned into plasmid pUT-KB. The QuikChange site-directed mutagenesis kit (Stratagene) was used to generate mutations in the adeR, adeS, gyrA and parC genes in the plasmids using the methods described by the manufacturer. For homologous recombination, plasmids containing mutations in the adeR, adeS, gyrA or parC gene were transformed into E. coli S17-1 λpir^23 via electroporation and mobilized into A. baumannii KW1 via conjugation. Single-crossover strains were selected from Luria-Bertani (LB) plates supplemented with cefotaxime (1 μg/ml) and kanamycin ([…]), as the growth of non-A. baumannii contaminants is suppressed by cefotaxime (1 μg/ml). The kanamycin-resistant transconjugants were selected and the insertion of plasmids was verified via PCR. After incubation in 20 ml brain heart infusion (BHI) broth for 6 hours in the absence of kanamycin at 37° C., the fully grown cultures were spread onto LB plates supplemented with 10% sucrose. After the double crossover occurred, the sucrose-resistant and kanamycin-susceptible colonies were selected, and the gene mutations were confirmed via PCR.
(§1) The MICs of antibiotics were determined using the Etest (Biodisk AB, Sweden) according to the manufacturer's instructions. The MICs from the Etest, which fall between standard two-fold dilutions, were rounded up to the next highest two-fold value. The MICs of ceftazidime and cefotaxime against K. pneumoniae NVT1001 harbouring the pACYC177 plasmid with blaOXA-48 were further determined using a broth microdilution test according to the recommendations of the CLSI,^25 and the results were interpreted according to the breakpoints established by the CLSI in 2017.^25 Meanwhile, due to the lack of CLSI breakpoints in 2016 and 2017, the results for cephalothin were interpreted according to the breakpoints established by the CLSI in 2015,^26 and the results for moxifloxacin were interpreted according to the breakpoints established by the EUCAST in 2017.^27

[2] = system: A. baumannii KW1 strains with β-lactamase plasmids; assay: Etest MIC of β-lactams, extended-spectrum β-lactamase, AmpC β-lactamase or carbapenemase (Table 18); type: cell-based, Acinetobacter baumannii
Method: (§2) DNA fragments of the resistance genes along with their flanking regions were amplified from clinical plasmids via PCR with specific primer pairs. The resulting PCR fragments were digested and then cloned into the plasmid pYMAb5 or pYMAb5Tc. The resulting plasmids were then transformed into A. baumannii KW1 via electroporation.
as §1

[3] = system: K. pneumoniae NVT1001 and its ΔompK35/36 and/or ΔramR mutants; assay: Etest MIC, OmpK35/36 loss and AcrAB-TolC overexpression (ΔramR) strains (Table 6); type: cell-based, Klebsiella pneumoniae; conditions: Klebsiella pneumoniae, Δ36, ΔompK36 mutant
Summary of the method: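 Ceftazidime and cefotaxime were tested by CLSI broth microdilution on the blaOXA-48 pACYC177 transformant of NVT1001, using CLSI 2017 breakpoints. Parent, porin-deleted (ΔompK35/36) and ΔramR strains were tested by Etest, with values between two-fold dilutions rounded up.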

[4] = system: K. pneumoniae NVT1001 and ΔramR strains with tet resistance gene plasmids; assay: Etest MIC of tetracyclines, AcrAB-TolC overexpression (ΔramR) and/or tet resistance gene (Table 14); type: cell-based, Klebsiella pneumoniae; conditions: Klebsiella pneumoniae
Method: DNA fragments of the resistance genes along with their flanking regions were amplified from clinical plasmids via PCR with specific primer pairs. The resulting PCR fragments were digested and then cloned into the plasmid pACYC177 or pACYC184. The resulting plasmids were then transformed into K. pneumoniae strain NVT1001 via electroporation. The recombinant bacteria were plated onto LB agar plates containing kanamycin (50 mg/L) or chloramphenicol (50 mg/L), and the presence of the cloned gene was confirmed via PCR and DNA sequencing.
as §1

[5] = system: A. baumannii KW1 strains with tet resistance gene plasmids; assay: Etest MIC of tetracyclines, tet resistance gene (Table 20); type: cell-based, Acinetobacter baumannii; conditions: for MIC: Acinetobacter baumannii
Method: as §2, §1

`CC(C)(O/N=C(\C(=O)N[C@@H]1C(=O)N2C(C(=O)[O-])=C(C[n+]3ccccc3)CS[C@H]12)c1csc(N)n1)C(=O)O` [CAZ] was tested, and the MIC ([1]; A91V mutant (AdeR)) was 16 µg/mL, the MIC ([1]; A94V mutant (AdeS)) was 8 µg/mL and the MIC ([1]; D20N mutant (AdeR)) was 12 µg/mL. For the same molecule, the MIC ([1]; G30D mutant (AdeS)) was 8 µg/mL, the MIC ([1]; KW1) was 4 µg/mL and the MIC ([1]; P116L mutant (AdeR)) was 8 µg/mL. For the same molecule, the MIC ([1]; R152K mutant (AdeS)) was 8 µg/mL, the MIC ([1]; T153M mutant (AdeS)) was 8 µg/mL and the MIC ([2]; KW1, no supplemental plasmid) was 4 µg/mL. The MIC ([2]; KW1 with ADC-30 on pYMAb5) was over 256 µg/mL, the MIC ([2]; KW1 with CTX-M-15 on pYMAb5) was over 256 µg/mL and the MIC ([2]; KW1 with IMP-1 on pYMAb5) was 48 µg/mL. It also gave an MIC ([2]; KW1 with NDM-1 on pYMAb5) of over 256 µg/mL, an MIC ([2]; KW1 with OXA-23 on pYMAb5) of 3 µg/mL and an MIC ([2]; KW1 with OXA-58 on pYMAb5) of 3 µg/mL. For the same molecule, the MIC ([2]; KW1 with OXA-66 on pYMAb5) was 3 µg/mL, the MIC ([2]; KW1 with OXA-72 on pYMAb5) was 3 µg/mL and the MIC ([2]; KW1 with VEB-3 on pYMAb5) was over 256 µg/mL. It also gave an MIC ([2]; KW1 with VIM-1 on pYMAb5) of over 256 µg/mL and an MIC ([2]; KW1 with shuttle vector pYMAb5) of 3 µg/mL.

In the case of `CN(C)[C@@H]1C(O)=C(C(N)=O)C(=O)[C@@]2(O)C(O)=C3C(=O)c4c(O)cccc4[C@@](C)(O)[C@H]3C[C@@H]12` [Tetracycline, tetracycline], the MIC [3] is reported as 2 µg/mL (≈ 4.5 µM), the MIC ([4]; NVT1001, Tet(A) on pACYC177, read-out: MIC) is reported as over 256 µg/mL and the MIC ([4]; NVT1001, Tet(B) on pACYC177, read-out: MIC) is reported as over 256 µg/mL. For the same molecule, the MIC ([4]; NVT1001, Tet(C) on pACYC177, read-out: MIC) was 16 µg/mL, the MIC ([4]; NVT1001, Tet(D) on pACYC177, read-out: MIC) was over 256 µg/mL and the MIC ([4]; NVT1001, Tet(M) on pACYC177, read-out: MIC) was 16 µg/mL. The MIC ([4]; ΔramR, Tet(A) on pACYC177) was over 256 µg/mL, the MIC ([4]; ΔramR, Tet(B) on pACYC177) was over 256 µg/mL and the MIC ([4]; ΔramR, Tet(C) on pACYC177) was 256 µg/mL. For the same molecule, the MIC ([4]; ΔramR, Tet(D) on pACYC177) was over 256 µg/mL, the MIC ([4]; ΔramR, Tet(M) on pACYC177) was 128 µg/mL and the MIC ([1]; Acinetobacter baumannii, A91V mutant (AdeR)) was 12 µg/mL. For the same molecule, the MIC ([1]; Acinetobacter baumannii, A94V mutant (AdeS)) was 6 µg/mL, the MIC ([1]; Acinetobacter baumannii, D20N mutant (AdeR)) was 8 µg/mL and the MIC ([1]; Acinetobacter baumannii, G30D mutant (AdeS)) was 8 µg/mL. It also gave an MIC ([1]; Acinetobacter baumannii, KW1, read-out: MIC) of 3 µg/mL, an MIC ([1]; Acinetobacter baumannii, P116L mutant (AdeR)) of 6 µg/mL and an MIC ([1]; Acinetobacter baumannii, R152K mutant (AdeS)) of 6 µg/mL. For the same molecule, the MIC ([1]; Acinetobacter baumannii, T153M mutant (AdeS)) was 8 µg/mL, the MIC ([5]; KW1, Tet(A) on pYMAb5) was 128 µg/mL and the MIC ([5]; KW1, Tet(B) on pYMAb5) was over 256 µg/mL. The MIC ([5]; KW1, Tet(M) on pYMAb5) was 48 µg/mL, the MIC ([5]; KW1, no supplemental plasmid) was 3 µg/mL and the MIC ([5]; KW1 with shuttle vector pYMAb5) was 3 µg/mL. For the same molecule, the “increase in the MIC” value ([5]; production of Tet(A), Tet(B) or Tet(C)) was 4 fold.

Source: US10760110B2, “Antibiotic testing and screening system” (priority 2017, dated 2020)
